The text below walks through data of patent EP2857388A1, “Azoles containing sulfone” (Grünenthal GmbH, priority 2013, dated 2015).

The target of this assay is T1, human B1R (Homo sapiens, UniProt P46663).
T1 construct: expressed in transfected cells; host or cells: CHO K1 cells (Chinese Hamster Ovary), stably transfected
T1 sequence (P46663 1-353): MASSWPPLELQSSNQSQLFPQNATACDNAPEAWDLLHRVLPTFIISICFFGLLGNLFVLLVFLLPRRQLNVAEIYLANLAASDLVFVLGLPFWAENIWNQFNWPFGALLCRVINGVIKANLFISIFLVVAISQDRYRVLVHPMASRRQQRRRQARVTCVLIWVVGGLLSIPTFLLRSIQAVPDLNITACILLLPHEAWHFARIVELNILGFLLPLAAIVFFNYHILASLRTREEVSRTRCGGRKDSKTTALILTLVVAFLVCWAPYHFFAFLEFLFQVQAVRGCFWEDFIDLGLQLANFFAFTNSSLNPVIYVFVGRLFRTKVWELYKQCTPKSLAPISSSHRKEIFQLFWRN
The assay can be described thus: Functional assay at bradykinin receptor 1 (B1R): Ca2+ fluorescence (Fluo-4) in FLIPR/Novostar, antagonist mode. The format is cell-based. The note with it: test substance 10 µM; CHO K1 cells stably transfected with human B1R gene (hB1R-Zellen); agonist Lys-Des-Arg9-Bradykinin at EC80; % inhibition relative to maximal achievable inhibition; read-out: % Inhibierung (human B1R) bei 10 µM. Put shortly: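 CHO K1 cells stably expressing human B1R were loaded with Fluo-4 and preincubated 6–20 min with test compound before Lys-Des-Arg9-bradykinin at its EC80. Peak fluorescence (ex 488/em 540 nm) gave % inhibition versus maximal inhibition; IC50 from several concentrations, n=2 or 3.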

As for `COc1cc(C)c(S(=O)(=O)Cc2cn(CC(=O)NC3CCN(C)CC3(C)C)nn2)c(C)c1` (centres unmarked) [CC-183, 2-[4-[[(4-Methoxy-2,6-dimethyl-phenyl)sulfonyl]-methyl]-1H-[1,2,3]triazol-1-yl]-N-(1,3,3-trimethyl-piperidin-4-yl)-acetamid], the inhibition at 10 µM worked out at 100%.
For `COc1cc(C)c(S(=O)(=O)Cc2c(C)nn(CC(=O)NC3CCN(C)CC3(C)C)c2C)c(C)c1` (centres unmarked) [CC-184, 2-[4-[[(4-Methoxy-2,6-dimethyl-phenyl)sulfonyl]-methyl]-3,5-dimethyl-1H-pyrazol-1-yl]-N-(1,3,3-trimethyl-piperidin-4-yl)-acetamid] the value was 100%; for `COc1cc(C)c(S(=O)(=O)Cc2c(C)nn(CC(=O)N(C)C3CCNCC3(C)C)c2C)c(C)c1` (centres unmarked) [CC-185, N-(3,3-Dimethyl-piperidin-4-yl)-2-[4-[[(4-methoxy-2,6-dimethyl-phenyl)sulfonyl]-methyl]-3,5-dimethyl-1 H-pyrazol-1-yl]-N-methyl-acetamid], 72%; for `COc1cc(C)c(S(=O)(=O)Cc2cn(CC(=O)N(C3CCC(N(C)C)CC3)C3CC3)nn2)c(C)c1` (centres unmarked) [CC-186, N-Cyclopropyl-N-(4-dimethylamino-cyclohexyl)-2-[4-[[(4-methoxy-2,6-dimethyl-phenyl)sulfonyl]-methyl]-1H-[1,2,3]triazol-1-yl]-acetamid], 100%.
For `COc1cc(C)c(S(=O)(=O)Cc2cc(C)n(CC(=O)NC3CCN(C)CC3(C)C)n2)c(C)c1` (centres unmarked) [CC-188, 2-[3-[[(4-Methoxy-2,6-dimethyl-phenyl)sulfonyl]-methyl]-5-methyl-1H-pyrazol-1-yl]-N-(1,3,3-trimethyl-piperidin-4-yl)-acetamid] the value was 57%; for `COc1cc(C)c(S(=O)(=O)Cc2noc(C(=O)NC3CCN(c4ccncc4)CC3)n2)c(C)c1` [SC-01, 3-[[(4-Methoxy-2,6-dimethyl-phenyl)sulfonyl]-methyl]-N-(1-pyridin-4-yl-piperidin-4-yl)-[1,2,4]oxadiazol-5-carbonsäure amid], 99%; for `COc1cc(C)c(S(=O)(=O)Cc2noc(C(=O)N3CC4(CCN(c5ccncc5)CC4)C3)n2)c(C)c1` [SC-02, [3-[[(4-Methoxy-2,6-dimethyl-phenyl)sulfonyl]-methyl]-[1,2,4]oxadiazol-5-yl]-(7-pyridin-4-yl-2,7-diazaspiro[3.5]nonan-2-yl)-methanon], 100%.
On to `COc1cc(C)c(S(=O)(=O)Cc2noc(C(=O)N3CCC(Oc4ccncc4)C3)n2)c(C)c1` (centres unmarked) [SC-03, [3-[[(4-Methoxy-2,6-dimethyl-phenyl)sulfonyl]-methyl]-[1,2,4]oxadiazol-5-yl]-(3-pyridin-4-yloxy-pyrrolidin-1-yl)-methanon], for which the inhibition at 10 µM stood at 98%.
For `COc1cc(C)c(S(=O)(=O)Cc2noc(C(=O)N3CCC4(CCN(c5ccncc5)CC4)C3)n2)c(C)c1` [SC-04, [3-[[(4-Methoxy-2,6-dimethyl-phenyl)sulfonyl]-methyl]-[1,2,4]oxadiazol-5-yl]-(8-pyridin-4-yl-3,8-diazaspiro[4.5]decan-3-yl)-methanon] the value was 100%; for `COc1cc(C)c(S(=O)(=O)Cc2noc(C(=O)N3CCC4(CCN(c5ccncc5)C4)C3)n2)c(C)c1` (centres unmarked) [SC-05, [3-[[(4-Methoxy-2,6-dimethyl-phenyl)sulfonyl]-methyl]-[1,2,4]oxadiazol-5-yl]-(8-pyridin-4-yl-3,8-diazaspiro[4.4]nonan-3-yl)-methanon], 100%; for `COc1cc(C)c(S(=O)(=O)Cc2noc(C(=O)NC3CCN(c4ccc(C(F)(F)F)cn4)C3)n2)c(C)c1` (centres unmarked) [SC-06, 3-[[(4-Methoxy-2,6-dimethyl-phenyl)sulfonyl]-methyl]-N-[1-[5-(trifluormethyl)-pyridin-2-yl]-pyrrolidin-3-yl]-[1,2,4]oxadiazol-5-carbonsäure amid], 94%.
For `COc1cc(C)c(S(=O)(=O)Cc2noc(C(=O)N3CCC(CN4CCN(C)CC4)C3)n2)c(C)c1` (centres unmarked) [SC-07, [3-[[(4-Methoxy-2,6-dimethyl-phenyl)sulfonyl]-methyl]-[1,2,4]oxadiazol-5-yl]-[3-[(4-methyl-piperazin-1-yl)-methyl]-pyrrolidin-1-yl]-methanon] the value was 100%.
For `COc1cc(C)c(S(=O)(=O)Cc2noc(C(=O)N3CCC(Cc4ccncc4)CC3)n2)c(C)c1` [SC-08, [3-[[(4-Methoxy-2,6-dimethyl-phenyl)sulfonyl]-methyl]-[1,2,4]oxadiazol-5-yl]-[4-(pyridin-4-yl-methyl)-piperidin-1-yl]-methanon] the value was 99%; for `COc1cc(C)c(S(=O)(=O)Cc2noc(C(=O)N3CCC4(CCC(Oc5ccncc5)CC4)CC3)n2)c(C)c1` [SC-09, [3-[[(4-Methoxy-2,6-dimethyl-phenyl)sulfonyl]-methyl]-[1,2,4]oxadiazol-5-yl]-(9-pyridin-4-yloxy-3-azaspiro[5.5]undecan-3-yl)-methanon], 99%.
As to `COc1cc(C)c(S(=O)(=O)Cc2noc(C(=O)N3CCC4(CC3)CCN(c3ccncc3)CC4)n2)c(C)c1` [SC-10, [3-[[(4-Methoxy-2,6-dimethyl-phenyl)sulfonyl]-methyl]-[1,2,4]oxadiazol-5-yl]-(9-pyridin-4-yl-3,9-diazaspiro[5.5]undecan-3-yl)-methanon], the inhibition at 10 µM is 100%.
For `COc1cc(C)c(S(=O)(=O)Cc2noc(CC(=O)N3CCC4(CC3)CCN(c3ccncc3)CC4)n2)c(C)c1` [SC-11, 2-[3-[[(4-Methoxy-2,6-dimethyl-phenyl)sulfonyl]-methyl]-[1,2,4]oxadiazol-5-yl]-1-(9-pyridin-4-yl-3,9-diazaspiro[5.5]undecan-3-yl)-ethanon] the value was 99%.
The same measure for `COc1cc(C)c(S(=O)(=O)Cc2noc(C(=O)NC3CCN(c4ccncc4)CC3(C)C)n2)c(C)c1` (centres unmarked) [SC-12, N-(3,3-Dimethyl-1-pyridin-4-yl-piperidin-4-yl)-3-[[(4-methoxy-2,6-dimethyl-phenyl)sulfonyl]-methyl]-[1,2,4]oxadiazol-5-carbonsäure amid]: 100%; for `COc1cc(C)c(S(=O)(=O)Cc2noc(CC(=O)NC3CCC(N4CCN(C)CC4)CC3(C)C)n2)c(C)c1` (centres unmarked) [SC-13, N-[2,2-Dimethyl-4-(4-methyl-piperazin-1-yl)-cyclohexyl]-2-[3-[[(4-methoxy-2,6-dimethyl-phenyl)sulfonyl]-methyl]-[1,2,4]oxadiazol-5-yl]-acetamid]: 100%.
For `COc1cc(C)c(S(=O)(=O)Cc2noc(CC(=O)NC3CCN(c4ccncc4)CC3(C)C)n2)c(C)c1` (centres unmarked) [SC-14, N-(3,3-Dimethyl-1-pyridin-4-yl-piperidin-4-yl)-2-[3-[[(4-methoxy-2,6-dimethyl-phenyl)sulfonyl]-methyl]-[1,2,4]oxadiazol-5-yl]-acetamid] the value was 100%; for `COc1cc(C)c(S(=O)(=O)Cc2noc(C(=O)NC3CCC(N4CCN(C)CC4)CC3(C)C)n2)c(C)c1` (centres unmarked) [SC-16, N-[2,2-Dimethyl-4-(4-methyl-piperazin-1-yl)-cyclohexyl]-3-[[(4-methoxy-2,6-dimethyl-phenyl)-sulfonyl]-methyl]-[1,2,4]oxadiazol-5-carbonsäure amid], 99%; for `COc1cc(C)c(S(=O)(=O)Cc2noc(C(=O)NC3CCC(c4ccncc4)CC3)n2)c(C)c1` (centres unmarked) [SC-18, 3-[[(4-Methoxy-2,6-dimethyl-phenyl)sulfonyl]-methyl]-N-(4-pyridin-4-yl-cyclohexyl)-[1,2,4]oxadiazol-5-carbonsäure amid], 97%.
Take `COc1cc(C)c(S(=O)(=O)Cc2noc(C(=O)NC3CCC(Cc4ccncc4)CC3)n2)c(C)c1` (centres unmarked) [SC-19, 3-[[(4-Methoxy-2,6-dimethyl-phenyl)sulfonyl]-methyl]-N-[4-(pyridin-4-yl-methyl)-cyclohexyl]-[1,2,4]oxadiazol-5-carbonsäure amid]: the inhibition at 10 µM was determined as 99%.
`COc1cc(C)c(S(=O)(=O)Cc2noc(CC(=O)N(C)C3CCN(C4CCC(C)CC4)CC3)n2)c(C)c1` (centres unmarked) [SC-20, 2-[3-[[(4-Methoxy-2,6-dimethyl-phenyl)sulfonyl]-methyl]-[1,2,4]oxadiazol-5-yl]-N-methyl-N-[1-(4-methyl-cyclohexyl)-piperidin-4-yl]-acetamid]: the inhibition at 10 µM was found to be 100%.
For `COc1cc(C)c(S(=O)(=O)Cc2noc(CC(=O)N(C)C3CCN(C4CCOCC4)CC3)n2)c(C)c1` [SC-21, 2-[3-[[(4-Methoxy-2,6-dimethyl-phenyl)sulfonyl]-methyl]-[1,2,4]oxadiazol-5-yl]-N-methyl-N-(1-tetrahydro-pyran-4-yl-piperidin-4-yl)-acetamid] the value was 100%; for `COc1cc(C)c(S(=O)(=O)Cc2noc(CC(=O)N(C3CC3)C3CCN(c4ccncc4)CC3)n2)c(C)c1` [SC-22, N-Cyclopropyl-2-[3-[[(4-methoxy-2,6-dimethyl-phenyl)sulfonyl]-methyl]-[1,2,4]oxadiazol-5-yl]-N-(1-pyridin-4-yl-piperidin-4-yl)-acetamid], 100%.
The same measure for `COc1cc(C)c(S(=O)(=O)Cc2noc(CC(=O)N(C)C3CCN(C(=O)c4ccncc4)CC3)n2)c(C)c1` [SC-27, 2-[3-[[(4-Methoxy-2,6-dimethyl-phenyl)sulfonyl]-methyl]-[1,2,4]oxadiazol-5-yl]-N-methyl-N-[1-(pyridin-4-carbonyl)-piperidin-4-yl]-acetamid]: 98%.
